In brackets after ≈: the same amount, converted by molar mass.
Assays:
Type in all cases: functional
[1] = tested on: Mycolicibacterium fortuitum; assay: Antibacterial activity against Mycobacterium fortuitum after 7 days by alamar blue assay; settings: 168 h
[2] = tested on: Staphylococcus aureus; assay: Antibacterial activity against Staphylococcus aureus ATCC 29213 after 24 hrs; settings: ATCC 29213, 24 h
[3] = tested on: Mycobacteroides chelonae; assay: Antibacterial activity against Mycobacterium chelonae after 7 days by alamar blue assay; settings: 168 h
[4] = tested on: Escherichia coli; assay: Antibacterial activity against Escherichia coli ATCC 25922 after 24 hrs; settings: ATCC 25922, 24 h
[5] = tested on: Pseudomonas aeruginosa; assay: Antibacterial activity against Pseudomonas aeruginosa ATCC 27853 after 24 hrs; settings: ATCC 27853, 24 h
[6] = tested on: Acinetobacter baumannii; assay: Antibacterial activity against Acinetobacter baumannii ATCC BAA-1605 after 24 hrs; settings: ATCC BAA-1605, 24 h
[7] = tested on: Mycobacteroides abscessus; assay: Antibacterial activity against Mycobacterium abscessus after 7 days by alamar blue assay; settings: 168 h
[8] = tested on: Klebsiella pneumoniae; assay: Antibacterial activity against Klebsiella pneumoniae ATCC BAA-1705 after 24 hrs; settings: ATCC BAA-1705, 24 h
[9] = tested on: Mycobacterium tuberculosis; assay: Antitubercular activity against Mycobacterium tuberculosis H37Rv after 7 days by alamar blue assay; settings: 168 h

Cc1ccc(N(C(=O)c2ccncc2)C(C(=O)NC2CCCCC2)c2cccnc2)cc1 (stereo unspecified)
MIC [1]: > 50 µM | MIC [2]: > 50 µM | MIC [3]: > 50 µM | MIC [4]: > 50 µM | MIC [5]: > 50 µM | MIC [6]: > 50 µM | MIC [7]: > 50 µM | MIC [8]: > 50 µM | MIC [9]: 25 µM (≈ 10.7 µg/mL)

Cc1cccc(N(C(=O)c2cnc3ccccc3c2)C(C(=O)NC2CCCCC2)c2ccccc2)c1C (stereo unspecified)
MIC [9]: > 100 µM

Cc1nc(C)c(C(=O)N(c2cnc3ccccc3c2)C(C(=O)NC2CCCCC2)c2ccccc2)s1 (stereo unspecified)
MIC [9]: > 100 µM

Cc1ccc(N(C(=O)c2sc(C)nc2C)C(C(=O)Nc2cccc3ccccc23)c2ccccc2)cc1 (stereo unspecified)
MIC [9]: > 100 µM

Cc1ccc(N(C(=O)c2sc(C)nc2C)C(C(=O)NC2CCCCC2)c2ccc(C(F)(F)F)cc2)cc1 (stereo unspecified)
MIC [9]: > 100 µM

Cc1ccc(N(C(=O)c2ccc[nH]2)C(C(=O)NC2CCCCC2)c2ccncc2)cc1 (stereo unspecified)
MIC [1]: > 50 µM | MIC [2]: > 50 µM | MIC [3]: > 50 µM | MIC [4]: > 50 µM | MIC [5]: > 50 µM | MIC [6]: > 50 µM | MIC [7]: > 50 µM | MIC [8]: > 50 µM | MIC [9]: 25 µM (≈ 10.4 µg/mL)

Cc1nc(C)c(C(=O)N(c2ccccc2)C(C(=O)NC2CCCCC2)c2cccc(Cl)c2)s1 (stereo unspecified)
MIC [9]: > 100 µM

Cc1nc(C)c(C(=O)N(c2ccccc2O)C(C(=O)NC2CCCCC2)c2ccccc2)s1 (stereo unspecified)
MIC [1]: > 50 µM | MIC [2]: > 50 µM | MIC [3]: > 50 µM | MIC [4]: > 50 µM | MIC [5]: > 50 µM | MIC [6]: > 50 µM | MIC [7]: > 50 µM | MIC [8]: > 50 µM | MIC [9]: 25 µM (≈ 11.6 µg/mL)

COc1ccc(C(C(=O)NC2CCCCC2)N(C(=O)c2sc(C)nc2C)c2ccccc2)cc1 (stereo unspecified)
MIC [9]: > 100 µM

C[C@H]1COc2c(N3CCN(C)CC3)c(F)cc3c(=O)c(C(=O)O)cn1c23 [LEVOFLOXACIN]
MIC [1]: < 0.03 µM | MIC [2]: 0.25 µM (≈ 0.0903 µg/mL) | MIC [3]: 0.25 µM (≈ 0.0903 µg/mL) | MIC [4]: < 0.03 µM | MIC [5]: 1 µM (≈ 0.361 µg/mL) | MIC [6]: 8 µM (≈ 2.89 µg/mL) | MIC [7]: 64 µM (≈ 23.1 µg/mL) | MIC [8]: 64 µM (≈ 23.1 µg/mL)

Cc1cccc(N(C(=O)c2c(C)noc2C)C(C(=O)NC2CCCCC2)c2ccncc2)c1C (stereo unspecified)
MIC [1]: > 50 µM | MIC [2]: > 50 µM | MIC [3]: > 50 µM | MIC [4]: > 50 µM | MIC [5]: > 50 µM | MIC [6]: > 50 µM | MIC [7]: > 50 µM | MIC [8]: > 50 µM | MIC [9]: 25 µM (≈ 11.5 µg/mL)

Cc1cccc(N(C(=O)c2ccc(Br)o2)C(C(=O)NC2CCCCC2)c2ccccc2)c1C (stereo unspecified)
MIC [9]: > 100 µM

Cc1cc(C)cc(N(C(=O)c2sc(C)nc2C)C(C(=O)NC2CCCCC2)c2ccccc2)c1 (stereo unspecified)
MIC [9]: > 100 µM

Cc1cccc(N(C(=O)c2ccco2)C(C(=O)NC2CCCCC2)c2ccccc2)c1C (stereo unspecified)
MIC [9]: > 100 µM

Cc1ccc(N(C(=O)c2ccncc2)C(C(=O)NC2CCCCC2)c2ccncc2)cc1 (stereo unspecified)
MIC [9]: 25 µM (≈ 10.7 µg/mL)

Cc1nc(C)c(C(=O)N(c2cccc(C)c2C)C(C(=O)NC(C)(C)C)c2ccccc2)s1 (stereo unspecified)
MIC [9]: > 100 µM

COc1ccc(C(C(=O)NC2CCCCC2)N(C(=O)c2sc(C)nc2C)c2ccc(C)cc2)cc1 (stereo unspecified)
MIC [9]: > 100 µM

Cc1nc(C)c(C(=O)N(c2ccc(C)c(C)c2)C(C(=O)NC2CCCCC2)c2ccccc2)s1 (stereo unspecified)
MIC [9]: > 100 µM

Cc1nc(C)c(C(=O)N(c2ccccc2)C(C(=O)NC2CCCCC2)c2ccc(C(F)(F)F)cc2)s1 (stereo unspecified)
MIC [9]: > 100 µM

Cc1ccc(N(C(=O)c2sc(C)nc2C)C(C(=O)NC2CCCCC2)c2ccccc2Cl)cc1 (stereo unspecified)
MIC [9]: > 100 µM

Cc1ccc(N(C(=O)c2sc(C)nc2C)C(C(=O)NC(C)(C)C)c2ccccc2)c(C)c1 (stereo unspecified)
MIC [9]: > 100 µM

Cc1nc(C)c(C(=O)N(c2ccccc2)C(C(=O)NC2CCCCC2)c2ccccc2)s1 (stereo unspecified)
MIC [9]: > 100 µM

Cc1ccc(N(C(=O)c2ccc[nH]2)C(C(=O)NC2CCCCC2)c2ccccc2)cc1 (stereo unspecified)
MIC [9]: 25 µM (≈ 10.4 µg/mL)

Cc1ccc(N(C(=O)c2sc(C)nc2C)C(C(=O)NC(C)(C)C)c2ccccc2)cc1 (stereo unspecified)
MIC [9]: > 100 µM

Cc1cccc(N(C(=O)c2ccnc(Cl)c2)C(C(=O)NC2CCCCC2)c2ccccc2)c1C (stereo unspecified)
MIC [9]: > 100 µM

Cc1ccc(C)c(N(C(=O)c2sc(C)nc2C)C(C(=O)NC2CCCCC2)c2ccccc2)c1 (stereo unspecified)
MIC [9]: > 100 µM

Cc1nc(C)c(C(=O)N(c2ccccc2)C(C(=O)NC2CCCCC2)c2cccc(C(F)(F)F)c2)s1 (stereo unspecified)
MIC [9]: > 100 µM

— ChEMBL document CHEMBL4422644, “Synthesis and evaluation of α-aminoacyl amides as antitubercular agents effective on drug resistant tuberculosis” (Eur J Med Chem, 2019)
